Results published in PubChem BioAssay (NCI).
“And” between values parts separate entries of the source, which are not always exact repeats. Equal entries are not always repeated.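 The compound was tested at five concentrations on cells cultured in 96-well plates, with a 48-hour exposure period. GI50 is the concentration that inhibits growth by half. TGI marks complete inhibition of growth.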

How the values were obtained:
Experiment in all cases: NCI tumour cell line growth inhibition, 48 h
[1] = tested on: SN12C renal
[2] = tested on: CCRF-CEM leukemia
[3] = tested on: LOX IMVI melanoma
[4] = tested on: T-47D breast
[5] = tested on: NCI-H460 lung
[6] = tested on: MCF7 breast
[7] = tested on: CAKI-1 renal
[8] = tested on: SF-539 CNS
[9] = tested on: UACC-257 melanoma
[10] = tested on: EKVX NSCLC
[11] = tested on: MDA-MB-231 breast
[12] = tested on: U251 CNS
[13] = tested on: MALME-3M melanoma
[14] = tested on: K-562 leukemia
[15] = tested on: OVCAR-3 ovarian
[16] = tested on: RXF 393 renal
[17] = tested on: HS 578T breast
[18] = tested on: HL-60(TB) leukemia
[19] = tested on: RPMI-8226 leukemia
[20] = tested on: UO-31 renal
[21] = tested on: A498 renal
[22] = tested on: TK-10 renal
[23] = tested on: HOP-92 NSCLC
[24] = tested on: NCI-H226 lung
[25] = tested on: OVCAR-4 ovarian
[26] = tested on: NCI/ADR-RES ovarian
[27] = tested on: PC-3 prostate
[28] = tested on: SNB-75 CNS
[29] = tested on: 786-0 renal
[30] = tested on: COLO 205 colon
[31] = tested on: UACC-62 melanoma
[32] = tested on: SF-295 CNS
[33] = tested on: MOLT-4 leukemia
[34] = tested on: SF-268 CNS
[35] = tested on: BT-549 breast
[36] = tested on: IGROV1 ovarian
[37] = tested on: KM12 colon
[38] = tested on: OVCAR-5 ovarian
[39] = tested on: HCC-2998 colon
[40] = tested on: NCI-H23 lung
[41] = tested on: M14 melanoma
[42] = tested on: SK-OV-3 ovarian
[43] = tested on: HOP-62 NSCLC
[44] = tested on: ACHN renal
[45] = tested on: HT29 colon
[46] = tested on: A549 NSCLC
[47] = tested on: HCT-15 colon
[48] = tested on: SR leukemia
[49] = tested on: MDA-MB-435
[50] = tested on: SNB-19 CNS
[51] = tested on: SK-MEL-5 melanoma
[52] = tested on: HCT-116 colon
[53] = tested on: SK-MEL-28 melanoma
[54] = tested on: SW-620 colon
[55] = tested on: NCI-H522 lung
[56] = tested on: OVCAR-8 ovarian
[57] = tested on: SK-MEL-2 melanoma
[58] = tested on: DU-145 prostate

SMILES: CCN(CC)CCNc1cc(-c2cccc(OC(F)(F)F)c2)nc2ccc(N3CCCC3)cc12
- GI50 [1]: 1690 nM and 1530 nM and 1890 nM
- TGI [1]: 3370 nM and 2980 nM and 3860 nM
- GI50 [2]: 1570 nM and 2190 nM and 2800 nM
- TGI [2]: 4200 nM and 6840 nM and 10400 nM
- GI50 [3]: 1560 nM and 1390 nM and 1730 nM
- TGI [3]: 2960 nM and 2730 nM and 3190 nM
- GI50 [4]: 1780 nM and 2120 nM
- TGI [4]: 4040 nM and 4320 nM
- GI50 [5]: 1620 nM and 1700 nM
- TGI [5]: 3270 nM and 3470 nM
- GI50 [6]: 1640 nM and 1450 nM and 1760 nM
- TGI [6]: 3440 nM and 2900 nM and 3620 nM
- GI50 [7]: 1580 nM and 1410 nM and 3080 nM
- TGI [7]: 3290 nM and 2760 nM and 11500 nM
- GI50 [8]: 1680 nM and 1740 nM and 1790 nM
- TGI [8]: 3200 nM and 3320 nM and 3360 nM
- GI50 [9]: 1810 nM and 1760 nM
- TGI [9]: 3510 nM and 3320 nM and 3600 nM
- GI50 [10]: 2140 nM and 2290 nM and 2490 nM
- TGI [10]: 5820 nM and 6240 nM and 8910 nM
- GI50 [11]: 1680 nM and 1650 nM and 1500 nM
- TGI [11]: 3270 nM and 3310 nM and 3130 nM
- GI50 [12]: 1540 nM and 1550 nM and 1710 nM
- TGI [12]: 3100 nM and 2950 nM and 3350 nM
- GI50 [13]: 1720 nM and 2010 nM and 1690 nM
- TGI [13]: 3340 nM and 3760 nM and 3170 nM
- GI50 [14]: 1360 nM and 1800 nM and 2180 nM
- TGI [14]: 6140 nM and 5090 nM and 5010 nM
- GI50 [15]: 1820 nM and 1830 nM and 1900 nM
- TGI [15]: 4110 nM and 3770 nM and 4410 nM
- GI50 [16]: 1510 nM and 1500 nM and 1700 nM
- TGI [16]: 3030 nM and 3090 nM and 4020 nM
- GI50 [17]: 1590 nM and 1870 nM and 2780 nM
- TGI [17]: 3520 nM and 4040 nM and 13000 nM
- GI50 [18]: 1660 nM and 714 nM and 2000 nM
- TGI [18]: 3650 nM and 3010 nM and 4120 nM
- GI50 [19]: 1350 nM and 1600 nM and 1690 nM
- TGI [19]: 3540 nM and 3940 nM and 4220 nM
- GI50 [20]: 1230 nM and 1350 nM and 1460 nM
- TGI [20]: 2500 nM and 2690 nM and 2990 nM
- GI50 [21]: 1610 nM and 1820 nM and 3420 nM
- TGI [21]: 6150 nM and 3440 nM and 14900 nM
- GI50 [22]: 2060 nM and 1870 nM and 2310 nM
- TGI [22]: 4500 nM and 3490 nM and 5730 nM
- GI50 [23]: 1170 nM and 1340 nM and 1510 nM
- TGI [23]: 2840 nM and 3090 nM and 4680 nM
- GI50 [24]: 2080 nM and 1760 nM and 2790 nM
- TGI [24]: 4260 nM and 3450 nM and 8020 nM
- GI50 [25]: 2140 nM and 1620 nM and 3110 nM
- TGI [25]: 7860 nM and 3670 nM and 12900 nM
- GI50 [26]: 1650 nM and 1720 nM and 2180 nM
- TGI [26]: 3190 nM and 3300 nM and 4530 nM
- GI50 [27]: 1370 nM and 1570 nM and 1810 nM
- TGI [27]: 2760 nM and 3100 nM and 3810 nM
- GI50 [28]: 1790 nM and 1740 nM
- TGI [28]: 4290 nM and 5780 nM
- GI50 [29]: 1660 nM and 1670 nM and 1590 nM
- TGI [29]: 3190 nM and 3230 nM
- GI50 [30]: 1450 nM and 1690 nM
- TGI [30]: 2910 nM and 3240 nM
- GI50 [31]: 1810 nM and 1820 nM and 1790 nM
- TGI [31]: 3470 nM and 3280 nM and 3510 nM
- GI50 [32]: 1630 nM and 1730 nM and 1920 nM
- TGI [32]: 3230 nM and 3360 nM and 3790 nM
- GI50 [33]: 1840 nM and 1920 nM and 2080 nM
- TGI [33]: 4700 nM and 4920 nM and 6080 nM
- GI50 [34]: 1980 nM and 1920 nM and 2230 nM
- TGI [34]: 4180 nM and 3960 nM and 5890 nM
- GI50 [35]: 1600 nM and 1830 nM and 1850 nM
- TGI [35]: 3110 nM and 3470 nM and 3570 nM
- GI50 [36]: 1340 nM and 1410 nM and 1460 nM
- TGI [36]: 2870 nM and 3040 nM and 3050 nM
- GI50 [37]: 1710 nM and 1700 nM and 1850 nM
- TGI [37]: 3510 nM and 3390 nM and 3770 nM
- GI50 [38]: 1940 nM and 2240 nM
- TGI [38]: 3930 nM and 3830 nM and 6120 nM
- GI50 [39]: 1340 nM and 1280 nM and 1900 nM
- TGI [39]: 2720 nM and 2600 nM and 4060 nM
- GI50 [40]: 1820 nM and 1870 nM and 1890 nM
- TGI [40]: 3650 nM and 3720 nM
- GI50 [41]: 1600 nM and 1820 nM and 1860 nM
- TGI [41]: 3120 nM and 3510 nM and 3630 nM
- GI50 [42]: 1690 nM and 1880 nM and 3010 nM
- TGI [42]: 3630 nM and 3660 nM and 9590 nM
- GI50 [43]: 1520 nM and 1750 nM and 1880 nM
- TGI [43]: 2960 nM and 3240 nM and 4000 nM
- GI50 [44]: 1530 nM and 1680 nM and 1920 nM
- TGI [44]: 2900 nM and 3280 nM and 3930 nM
- GI50 [45]: 1700 nM and 1600 nM and 1760 nM
- TGI [45]: 3470 nM and 3330 nM and 3730 nM
- GI50 [46]: 1710 nM and 1730 nM and 2550 nM
- TGI [46]: 3350 nM and 3290 nM and 7300 nM
- GI50 [47]: 1460 nM and 1380 nM and 1730 nM
- TGI [47]: 3170 nM and 2840 nM and 3710 nM
- GI50 [48]: 418 nM and 462 nM
- TGI [48]: 2120 nM and 2260 nM
- GI50 [49]: 1470 nM and 1430 nM and 1740 nM
- TGI [49]: 2830 nM and 2850 nM and 3300 nM
- GI50 [50]: 1750 nM and 1840 nM and 1980 nM
- TGI [50]: 3400 nM and 3310 nM and 3800 nM
- GI50 [51]: 1630 nM and 1910 nM and 1700 nM
- TGI [51]: 2990 nM and 3350 nM and 3170 nM
- GI50 [52]: 1240 nM and 1260 nM and 1540 nM
- TGI [52]: 2520 nM and 2720 nM and 3050 nM
- GI50 [53]: 1660 nM and 1900 nM and 1740 nM
- TGI [53]: 3160 nM and 3380 nM and 3170 nM
- GI50 [54]: 1670 nM and 1860 nM and 2010 nM
- TGI [54]: 3250 nM and 3790 nM and 4360 nM
- GI50 [55]: 1880 nM and 1640 nM and 1920 nM
- TGI [55]: 3630 nM and 3240 nM and 4000 nM
- GI50 [56]: 1940 nM and 1760 nM and 1990 nM
- TGI [56]: 4040 nM and 3360 nM and 4240 nM
- GI50 [57]: 1610 nM and 1870 nM and 1900 nM
- TGI [57]: 3300 nM and 3490 nM and 3610 nM
- GI50 [58]: 1850 nM and 2360 nM and 3590 nM
- TGI [58]: 4100 nM and 5440 nM and 12800 nM
